Measurements: ChEMBL document CHEMBL4033641, “Design, synthesis and anticancer potential of NSC-319745 hydroxamic acid derivatives as DNMT and HDAC inhibitors” (Eur J Med Chem, 2017)

Key:
[1] = molecular target: DNA (cytosine-5)-methyltransferase 1 (Homo sapiens) (UniProt P26358); experiment: Inhibition of DNMT1 (unknown origin) at 100 uM using poly(dI-dC).poly(dI-dC) as substrate preincubated for 15 mins followed by substrate/[3H]-SAM addition measured after 120 mins by liquid scintillation counting analysis
Chain of DNA (cytosine-5)-methyltransferase 1 (Homo sapiens) (P26358 whole entry): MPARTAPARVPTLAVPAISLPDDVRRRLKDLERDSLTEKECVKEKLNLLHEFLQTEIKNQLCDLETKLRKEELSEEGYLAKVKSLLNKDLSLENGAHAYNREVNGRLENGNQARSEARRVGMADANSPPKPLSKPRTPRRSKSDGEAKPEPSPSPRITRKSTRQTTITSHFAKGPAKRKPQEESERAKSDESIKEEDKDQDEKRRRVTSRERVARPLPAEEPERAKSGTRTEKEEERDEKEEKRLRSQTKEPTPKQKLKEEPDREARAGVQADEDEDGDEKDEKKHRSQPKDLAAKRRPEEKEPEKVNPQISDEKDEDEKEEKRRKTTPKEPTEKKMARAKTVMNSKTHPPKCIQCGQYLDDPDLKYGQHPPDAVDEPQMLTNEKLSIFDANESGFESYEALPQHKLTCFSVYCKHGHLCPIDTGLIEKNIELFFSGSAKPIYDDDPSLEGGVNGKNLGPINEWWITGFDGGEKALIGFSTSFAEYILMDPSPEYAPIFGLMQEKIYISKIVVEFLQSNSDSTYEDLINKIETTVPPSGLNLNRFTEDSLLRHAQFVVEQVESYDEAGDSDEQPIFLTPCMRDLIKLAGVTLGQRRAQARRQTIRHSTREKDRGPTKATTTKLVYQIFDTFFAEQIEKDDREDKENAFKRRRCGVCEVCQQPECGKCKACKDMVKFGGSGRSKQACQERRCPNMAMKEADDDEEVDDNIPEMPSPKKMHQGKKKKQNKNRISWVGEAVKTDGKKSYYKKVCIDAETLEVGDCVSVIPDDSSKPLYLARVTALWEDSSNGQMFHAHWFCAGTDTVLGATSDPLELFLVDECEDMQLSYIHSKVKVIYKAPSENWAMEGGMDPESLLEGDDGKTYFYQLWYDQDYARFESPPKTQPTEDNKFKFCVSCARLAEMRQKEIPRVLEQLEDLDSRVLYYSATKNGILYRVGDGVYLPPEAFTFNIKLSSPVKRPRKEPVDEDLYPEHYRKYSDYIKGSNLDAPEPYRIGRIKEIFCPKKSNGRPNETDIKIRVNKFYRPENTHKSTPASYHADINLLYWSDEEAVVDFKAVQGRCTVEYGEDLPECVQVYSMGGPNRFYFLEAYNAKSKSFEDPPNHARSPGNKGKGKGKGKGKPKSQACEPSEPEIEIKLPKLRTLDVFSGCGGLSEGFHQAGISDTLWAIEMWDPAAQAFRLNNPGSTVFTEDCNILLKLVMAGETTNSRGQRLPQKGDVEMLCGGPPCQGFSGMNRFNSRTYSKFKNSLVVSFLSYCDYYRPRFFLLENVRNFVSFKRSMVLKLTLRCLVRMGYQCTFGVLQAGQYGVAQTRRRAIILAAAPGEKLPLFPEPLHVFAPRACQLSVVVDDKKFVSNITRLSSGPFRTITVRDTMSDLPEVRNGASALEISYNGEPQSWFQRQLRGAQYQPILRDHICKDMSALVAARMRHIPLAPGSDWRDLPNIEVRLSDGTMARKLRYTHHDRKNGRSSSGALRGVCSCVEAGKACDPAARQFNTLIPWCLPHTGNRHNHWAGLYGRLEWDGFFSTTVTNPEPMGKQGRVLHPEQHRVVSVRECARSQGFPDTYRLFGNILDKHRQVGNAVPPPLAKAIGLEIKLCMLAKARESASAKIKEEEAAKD

[2] = molecular target: DNMT3A2/3L complex (Homo sapiens) (UniProt Q9Y6K1+Q9UJW3); experiment: Inhibition of DNMT3A/3L (unknown origin) at 100 uM using biotinylated DNA oligonucleotides as substrate preincubated for 15 mins followed by substrate/[3H]-SAM addition measured after 4 hrs by liquid scintillation counting analysis; type: protein-complex assay
Chain of DNMT3A2/3L complex (Homo sapiens) (Q9UJW3 whole entry, looked up): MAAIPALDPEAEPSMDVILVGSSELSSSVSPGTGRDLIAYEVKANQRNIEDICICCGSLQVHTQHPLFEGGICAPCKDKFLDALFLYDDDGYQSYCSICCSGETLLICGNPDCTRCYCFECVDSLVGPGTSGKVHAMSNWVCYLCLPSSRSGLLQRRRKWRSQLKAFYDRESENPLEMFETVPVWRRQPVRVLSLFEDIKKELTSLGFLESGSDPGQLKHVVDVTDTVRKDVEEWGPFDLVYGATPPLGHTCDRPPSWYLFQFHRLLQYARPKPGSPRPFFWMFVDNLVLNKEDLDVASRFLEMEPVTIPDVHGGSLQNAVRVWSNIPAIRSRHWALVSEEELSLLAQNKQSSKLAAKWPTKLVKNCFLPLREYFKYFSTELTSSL
Chain of DNMT3A2/3L complex (Homo sapiens) (Q9Y6K1 whole entry, looked up): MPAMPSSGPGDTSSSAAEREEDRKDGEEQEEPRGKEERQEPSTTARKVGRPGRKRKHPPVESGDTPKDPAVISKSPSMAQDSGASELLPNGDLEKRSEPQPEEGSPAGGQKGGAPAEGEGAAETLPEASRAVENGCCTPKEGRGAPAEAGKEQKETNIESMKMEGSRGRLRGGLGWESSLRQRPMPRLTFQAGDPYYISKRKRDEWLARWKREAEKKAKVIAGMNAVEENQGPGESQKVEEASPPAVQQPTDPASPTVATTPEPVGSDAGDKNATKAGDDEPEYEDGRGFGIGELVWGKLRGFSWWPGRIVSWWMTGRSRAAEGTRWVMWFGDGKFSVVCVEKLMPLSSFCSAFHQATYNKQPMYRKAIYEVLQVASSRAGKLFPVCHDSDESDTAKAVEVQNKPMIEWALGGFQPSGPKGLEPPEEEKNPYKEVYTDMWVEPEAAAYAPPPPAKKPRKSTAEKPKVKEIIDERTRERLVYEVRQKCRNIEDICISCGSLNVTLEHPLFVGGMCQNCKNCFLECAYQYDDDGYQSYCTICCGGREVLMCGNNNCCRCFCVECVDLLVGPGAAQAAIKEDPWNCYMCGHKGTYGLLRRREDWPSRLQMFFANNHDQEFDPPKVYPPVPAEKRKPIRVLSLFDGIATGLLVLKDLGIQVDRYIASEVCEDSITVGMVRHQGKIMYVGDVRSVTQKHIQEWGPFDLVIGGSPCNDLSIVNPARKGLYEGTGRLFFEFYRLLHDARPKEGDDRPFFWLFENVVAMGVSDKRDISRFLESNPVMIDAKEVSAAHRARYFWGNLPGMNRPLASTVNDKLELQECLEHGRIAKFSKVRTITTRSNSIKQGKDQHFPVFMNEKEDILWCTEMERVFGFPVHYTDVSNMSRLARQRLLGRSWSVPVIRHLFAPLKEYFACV

[3] = molecular target: DNMT3B-DNMT3L complex (Homo sapiens) (UniProt Q9UBC3+Q9UJW3); experiment: Inhibition of DNMT3B/3L (unknown origin) at 100 uM using biotinylated DNA oligonucleotides as substrate preincubated for 15 mins followed by substrate/[3H]-SAM addition measured after 4 hrs by liquid scintillation counting analysis; type: protein-complex assay
Chain of DNMT3B-DNMT3L complex (Homo sapiens) (Q9UJW3 whole entry, looked up, other chains not shown): as the sequence (Q9UJW3 whole entry, looked up) above

Histone deacetylase 1 = Histone deacetylase 1 (Homo sapiens, UniProt Q13547); experiment: Inhibition of HDAC1 (unknown origin) preincubated for 15 mins followed by substrate addition measured after 60 mins by fluorescence assay
Chain of Histone deacetylase 1 (Q13547 whole entry): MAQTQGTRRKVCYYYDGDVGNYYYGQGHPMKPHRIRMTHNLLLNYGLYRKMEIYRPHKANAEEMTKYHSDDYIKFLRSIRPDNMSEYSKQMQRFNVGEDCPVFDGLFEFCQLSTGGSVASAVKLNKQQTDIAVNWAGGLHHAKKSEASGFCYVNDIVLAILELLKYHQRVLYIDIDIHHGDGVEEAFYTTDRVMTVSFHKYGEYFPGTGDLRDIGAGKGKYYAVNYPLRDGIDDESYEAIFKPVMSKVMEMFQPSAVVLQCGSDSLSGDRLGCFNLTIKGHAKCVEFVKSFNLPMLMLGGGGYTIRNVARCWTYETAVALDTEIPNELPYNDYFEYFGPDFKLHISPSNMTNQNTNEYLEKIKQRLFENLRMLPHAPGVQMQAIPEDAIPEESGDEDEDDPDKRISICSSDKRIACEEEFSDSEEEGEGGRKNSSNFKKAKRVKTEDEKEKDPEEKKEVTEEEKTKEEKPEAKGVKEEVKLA

[4] = molecular target: T1, Protein deacetylase HDAC6 (Homo sapiens, UniProt Q9UBN7); experiment: Inhibition of HDAC6 (unknown origin) preincubated for 15 mins followed by substrate addition measured after 60 mins by fluorescence assay
T1 sequence (Q9UBN7 whole entry): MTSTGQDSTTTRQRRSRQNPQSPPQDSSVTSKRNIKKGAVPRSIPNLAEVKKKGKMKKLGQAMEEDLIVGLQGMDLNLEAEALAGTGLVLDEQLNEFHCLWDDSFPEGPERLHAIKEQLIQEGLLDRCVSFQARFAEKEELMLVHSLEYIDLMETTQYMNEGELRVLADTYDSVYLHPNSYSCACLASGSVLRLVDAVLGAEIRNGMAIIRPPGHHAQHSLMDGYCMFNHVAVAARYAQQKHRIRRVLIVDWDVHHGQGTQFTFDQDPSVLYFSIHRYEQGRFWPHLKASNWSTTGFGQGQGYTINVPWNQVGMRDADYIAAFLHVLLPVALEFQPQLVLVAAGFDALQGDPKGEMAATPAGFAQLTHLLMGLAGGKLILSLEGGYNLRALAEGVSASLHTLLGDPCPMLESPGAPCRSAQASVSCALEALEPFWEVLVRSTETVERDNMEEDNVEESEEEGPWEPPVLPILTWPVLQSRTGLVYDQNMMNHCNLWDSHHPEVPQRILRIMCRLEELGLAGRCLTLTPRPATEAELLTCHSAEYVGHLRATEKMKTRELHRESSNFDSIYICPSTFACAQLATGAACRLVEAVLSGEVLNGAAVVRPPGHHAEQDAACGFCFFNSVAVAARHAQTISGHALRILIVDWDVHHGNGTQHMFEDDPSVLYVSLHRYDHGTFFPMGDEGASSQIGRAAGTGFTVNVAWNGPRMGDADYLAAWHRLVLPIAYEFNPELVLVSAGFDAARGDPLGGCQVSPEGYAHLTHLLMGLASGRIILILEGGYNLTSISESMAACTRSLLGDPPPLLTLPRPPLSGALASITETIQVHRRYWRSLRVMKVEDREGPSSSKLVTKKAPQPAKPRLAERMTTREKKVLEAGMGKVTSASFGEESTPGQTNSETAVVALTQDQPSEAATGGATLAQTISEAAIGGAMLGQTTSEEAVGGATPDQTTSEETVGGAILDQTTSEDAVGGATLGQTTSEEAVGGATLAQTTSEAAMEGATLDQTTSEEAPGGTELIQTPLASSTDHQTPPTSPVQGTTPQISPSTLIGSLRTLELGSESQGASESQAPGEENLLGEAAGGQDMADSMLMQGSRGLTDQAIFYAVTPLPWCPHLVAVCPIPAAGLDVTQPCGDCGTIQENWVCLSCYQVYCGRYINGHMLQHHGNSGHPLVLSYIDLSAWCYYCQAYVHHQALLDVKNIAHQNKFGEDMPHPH

K562 [5] = experiment: Antiproliferative activity against human K562 cells after 72 hrs by MTT assay; type: functional, cell-based; settings: K562, 72 h
U-937 [6] = experiment: Antiproliferative activity against human U937 cells after 72 hrs by MTT assay; type: functional, cell-based; settings: U-937, 72 h
Salmonella typhimurium [7] = experiment: Genotoxicity in Salmonella typhimurium TA97 at 50 times IC50 by Ames test; type: toxicity; settings: salmonella enterica subsp. enterica serovar typhimurium
Salmonella typhimurium [8] = experiment: Genotoxicity in Salmonella typhimurium TA98 at 50 times IC50 by Ames test; type: toxicity; settings: salmonella enterica subsp. enterica serovar typhimurium
Salmonella typhimurium [9] = experiment: Genotoxicity in Salmonella typhimurium TA102 at 50 times IC50 by Ames test; type: toxicity; settings: salmonella enterica subsp. enterica serovar typhimurium
Salmonella typhimurium [10] = experiment: Genotoxicity in Salmonella typhimurium TA1535 at 50 times IC50 by Ames test; type: toxicity; settings: salmonella enterica subsp. enterica serovar typhimurium
U-937 [11] = experiment: Growth inhibition of human U937 cells at 50 uM after 72 hrs by MTT assay; type: functional; settings: U-937, 72 h, read-out: GI
K562 [12] = experiment: Growth inhibition of human K562 cells at 50 uM after 72 hrs by MTT assay; type: functional; settings: K562, 72 h, read-out: GI
A549 = experiment: Antiproliferative activity against human A549 cells after 72 hrs by MTT assay; type: functional, cell-based; settings: A549, 72 h
HCT-116 = experiment: Antiproliferative activity against human HCT116 cells after 72 hrs by MTT assay; type: functional, cell-based; settings: HCT-116, 72 h
HepG2 = experiment: Antiproliferative activity against human HepG2 cells after 72 hrs by MTT assay; type: functional, cell-based; settings: HepG2, 72 h
HeLa = experiment: Antiproliferative activity against human HeLa cells after 72 hrs by MTT assay; type: functional, cell-based
U-937 [13] = experiment: Induction of apoptosis in human U937 cells assessed as viable cells at 0.5 uM after 48 hrs by Annexin V-FITC/PI staining based flow cytometry (reference value: 99.6%); type: functional; settings: U-937, 48 h, read-out: Activity
U-937 [14] = experiment: Induction of apoptosis in human U937 cells assessed as early apoptotic cells at 0.5 uM after 48 hrs by Annexin V-FITC/PI staining based flow cytometry (reference value: 0.140%); type: functional
U-937 [15] = experiment: Induction of apoptosis in human U937 cells assessed as late apoptotic cells at 0.5 uM after 48 hrs by Annexin V-FITC/PI staining based flow cytometry (reference value: 0.279%); type: functional
U-937 [16] = experiment: Induction of apoptosis in human U937 cells assessed as necrotic cells at 0.5 uM after 48 hrs by Annexin V-FITC/PI staining based flow cytometry (reference value: 0%); type: functional
U-937 [17] = experiment: Induction of apoptosis in human U937 cells assessed as viable cells at 1 uM after 48 hrs by Annexin V-FITC/PI staining based flow cytometry (reference value: 99.6%); type: functional; settings: U-937, 48 h, read-out: Activity
U-937 [18] = experiment: Induction of apoptosis in human U937 cells assessed as early apoptotic cells at 1 uM after 48 hrs by Annexin V-FITC/PI staining based flow cytometry (reference value: 0.140%); type: functional
U-937 [19] = experiment: Induction of apoptosis in human U937 cells assessed as late apoptotic cells at 1 uM after 48 hrs by Annexin V-FITC/PI staining based flow cytometry (reference value: 0.279%); type: functional
U-937 [20] = experiment: Induction of apoptosis in human U937 cells assessed as necrotic cells at 1 uM after 48 hrs by Annexin V-FITC/PI staining based flow cytometry (reference value: 0%); type: functional
U-937 [21] = experiment: Induction of apoptosis in human U937 cells assessed as viable cells at 2.5 uM after 48 hrs by Annexin V-FITC/PI staining based flow cytometry (reference value: 99.6%); type: functional; settings: U-937, 48 h, read-out: Activity
U-937 [22] = experiment: Induction of apoptosis in human U937 cells assessed as early apoptotic cells at 2.5 uM after 48 hrs by Annexin V-FITC/PI staining based flow cytometry (reference value: 0.140%); type: functional
U-937 [23] = experiment: Induction of apoptosis in human U937 cells assessed as late apoptotic cells at 2.5 uM after 48 hrs by Annexin V-FITC/PI staining based flow cytometry (reference value: 0.279%); type: functional
U-937 [24] = experiment: Induction of apoptosis in human U937 cells assessed as necrotic cells at 2.5 uM after 48 hrs by Annexin V-FITC/PI staining based flow cytometry (reference value: 0%); type: functional

Row | Compound | inhibition [1] [%] | inhibition [2] [%] | inhibition [3] [%] | IC50 (Histone deacetylase 1) [µM] | IC50 [4] [µM] | IC50 (K562 [5]) [µM] | IC50 (U-937 [6]) [µM] | Activity (Salmonella typhimurium [7]) | Activity (Salmonella typhimurium [8]) | Activity (Salmonella typhimurium [9]) | Activity (Salmonella typhimurium [10]) | also measured
1 | O=C(/C=C/c1ccc(CCNC(=O)c2ccc3[nH]cnc3c2)cc1)NO | 47 to 47.4 | 41 to 41.2 | 30.8 | 0.0078 | 0.00468 | 31.7 | – | – | – | – | – | inhibition of growth at 50 µM (U-937 [11]): 45%
2 | COc1cc(C(=O)NCCc2ccc(/C=C/C(=O)NO)cc2)ccc1O | 27.9 | 11.2 | 15.8 | 0.0081 | 0.0107 | 5.18 | 10.7 | – | – | – | – | –
3 | COc1ccc(Cl)cc1C(=O)NCCc1ccc(CCC(=O)O)cc1 | 34 to 34.1 | 42 | 6.11 | – | – | – | – | – | – | – | – | inhibition of growth at 50 µM (U-937 [11]): 15%; inhibition of growth at 50 µM (K562 [12]): 20%
4 | COc1ccc(Cl)cc1C(=O)NCCc1ccc(CCC(=O)NO)cc1 | 23.8 to 24 | 4.64 to 5 | 8.26 | 0.0723 | 0.0414 | 6.23 | 3.95 | Non-Toxic | Non-Toxic | Toxic | Non-Toxic | –
5 | O=C(/C=C/c1ccc(CCNC(=O)c2c[nH]c3ncccc23)cc1)NO | 28.1 | 21 | 7.23 | 0.0143 | 0.00835 | 17.9 | 17.9 | – | – | – | – | –
6 | O=C(/C=C/c1ccc(CCNC(=O)c2cncc(F)c2)cc1)NO | 44 to 44.2 | 0.9 | 1.9 | 0.0257 | 0.0359 | 7.06 | 4.59 | Non-Toxic | Non-Toxic | Non-Toxic | Non-Toxic | –

More lines, main results first:

Row | inhibition [1] [%] | inhibition [2] [%] | inhibition [3] [%] | IC50 (Histone deacetylase 1) [µM] | IC50 [4] [µM] | IC50 (K562 [5]) [µM] | IC50 (U-937 [6]) [µM] | Compound | Activity (Salmonella typhimurium [7]) | Activity (Salmonella typhimurium [8]) | Activity (Salmonella typhimurium [9]) | Activity (Salmonella typhimurium [10]) | also measured
7 | 36 to 36.4 | 1.97 | 3.09 | 0.0346 | 0.0399 | 3.65 | 1.07 | COc1ccc(Cl)cc1C(=O)NCCc1cccc(/C=C/C(=O)NO)c1 | Non-Toxic | Non-Toxic | Non-Toxic | Non-Toxic | –
8 | 47.9 to 48 | -0.26 | 28 to 28.1 | 0.0113 | 0.0119 | 1.78 | 2.97 | O=C(/C=C/c1ccc(CCNC(=O)c2ccc3c(c2)OCCO3)cc1)NO | Non-Toxic | Non-Toxic | Non-Toxic | Non-Toxic | –
9 | – | – | – | – | – | 1.16 | 1.56 | Cc1cc(Nc2ccc(NC(=O)c3ccc(Nc4ccnc5ccccc45)cc3)cc2)nc(N)n1 | – | – | – | – | –
10 | 22.9 | 19.1 | 50 to 50.1 | 0.004 | 0.00528 | 3.16 | 1.26 | O=C(/C=C/c1ccc(CCNC(=O)c2ccc3ncccc3c2)cc1)NO | Non-Toxic | Toxic | Non-Toxic | Non-Toxic | –
11 | 18.4 | -1.03 | 9.89 | 0.00718 | 0.0071 | 1.12 | 0.52 | O=C(/C=C/c1ccc(CCNC(=O)c2ccc3c(c2)OCO3)cc1)NO | Non-Toxic | Non-Toxic | Non-Toxic | Toxic | –
12 | 39.8 to 40 | 3.98 | 10.6 | 0.0192 | 0.012 | 2.75 | 0.19 | COc1ccc(Cl)cc1C(=O)NCCc1ccc(/C=C/C(=O)NO)cc1 | Non-Toxic | Non-Toxic | Non-Toxic | Non-Toxic | IC50 (A549): 12.5 µM; IC50 (HCT-116): 5.39 µM; IC50 (HepG2): 5.43 µM; IC50 (HeLa): 10.6 µM; viability at 0.5 µM (U-937 [13]): 84%; Activity (U-937 [14]): 6.9%; Activity (U-937 [15]): 9.11%; Activity (U-937 [16]): 0.02%; viability at 1 µM (U-937 [17]): 52.8%; Activity (U-937 [18]): 10.1%; Activity (U-937 [19]): 36.4%; Activity (U-937 [20]): 0.942%; viability at 2.5 µM (U-937 [21]): 0.365%; Activity (U-937 [22]): 41.8%; Activity (U-937 [23]): 57.8%; Activity (U-937 [24]): 0.02%
